The source of these data is US10611740B2, “Aryl dihydro-2H-benzo[b][1,4]oxazine sulfonamide and related compounds for use as agonists of RORγ and the treatment of disease” (Lycera Corporation, priority 2015, dated 2020).

In one test the target is T1, Gal4-RORγ-LBD (Homo sapiens, UniProt P51449).
T1 construct: expressed in transfected cells; host or cells: HEK-293 cells (pcDNA3.1neo plasmid)
T1 sequence (P51449 269-508 limits assumed): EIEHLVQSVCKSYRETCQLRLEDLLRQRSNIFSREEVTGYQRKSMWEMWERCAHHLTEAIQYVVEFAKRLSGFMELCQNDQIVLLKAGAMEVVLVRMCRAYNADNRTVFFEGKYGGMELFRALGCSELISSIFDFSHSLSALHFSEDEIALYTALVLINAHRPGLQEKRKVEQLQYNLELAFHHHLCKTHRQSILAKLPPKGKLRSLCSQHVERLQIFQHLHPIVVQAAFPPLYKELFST
As to the kind of experiment: Gal4-RORγ Luciferase Reporter Assay in HEK-293T Cells. The format is cell-based. The note with it: HEK-293 cells, luciferase reporter, with 2 μM ursolic acid. The procedure, abridged: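 In transfected HEK-293 cells (Gal4-RORγ-LBD, Gal4-luciferase), test agents with 2 μM ursolic acid were incubated overnight at 37 °C before luminescent detection. Values are relative to the ursolic-acid-free, compound-free signal (100).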

Another test deals with T2, RORγ-LBD (Homo sapiens, UniProt P51449).
T2 construct: made in house; host or cells: SF9 cells (baculovirus)
T2 sequence (P51449 269-508 limits assumed): T1 sequence (P51449 269-508 limits assumed)
As to the kind of experiment: RORγ-Ligand Binding Domain (LBD) TR-FRET Assay.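 As to TR-FRET Assay Max Response: 665/615 nm ratio relative to signal without ursolic acid or compound set at 100.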 The test is classed as biochemical. Put shortly: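 Lysate from SF9 cells expressing His-RORγ-LBD is diluted to about 3 nM final in 50 mM Tris pH 7.0 assay buffer. A biotin-tagged SRC1 LXXLL peptide goes in at 200 nM final, plus ursolic acid at 2 μM final. Test compounds carry 1% DMSO final; signal read by TR-FRET.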

A value given as a limit tells only on which side of the number the result lay.

As usually defined, the EC50 is the concentration at which the effect is half-maximal. Lower therefore signals a more potent agent. Take `CC(C)(O)C(=O)NC[C@H]1CN(S(=O)(=O)c2cccc(C(F)(F)F)c2)c2cc(-c3cccc(C(F)(F)F)n3)ccc2O1` [Compound 30I, (S)-2-hydroxy-2-methyl-N-((4-((3-(trifluoromethyl)phenyl)-sulfonyl)-6-(6-(trifluoromethyl)-pyridin-2-yl)-3,4-dihydro-2H-benzo[b][1,4]oxazin-2-yl)methyl)propanamide]: at Gal4-RORγ-LBD, the EC50 is less than 500 nM and the “Gal4-RORγ Assay Max Response” value is on record as “* (The symbol “*” indicates a value in the range of 25 to 90)”. On RORγ-LBD, the concentration for a half-maximal effect (EC50) is less than 500 nM and the “TR-FRET Assay Max Response” value is reported as “**** (The symbol “****” indicates a value greater than 200)”.

As for `CC(C)c1cccc(S(=O)(=O)N2C[C@H](CNC(=O)C(C)(C)O)Oc3ccc(-c4cccc(N(C)C)n4)cc32)c1` [Compound 30J, (S)-N-((6-(6-(dimethylamino)-pyridin-2-yl)-4-((3-isopropylphenyl)sulfonyl)-3,4-dihydro-2H-benzo[b][1,4]oxazin-2-yl)methyl)-2-hydroxy-2-methylpropanamide], on Gal4-RORγ-LBD, the EC50 was less than 500 nM and the “Gal4-RORγ Assay Max Response” value is given as “* (The symbol “*” indicates a value in the range of 25 to 90)”. Also, on RORγ-LBD, the EC50 is less than 500 nM and the “TR-FRET Assay Max Response” value is reported as “**** (The symbol “****” indicates a value greater than 200)”.

Regarding `CC(C)c1cccc(S(=O)(=O)N2C[C@H](CNC(=O)C(C)(C)O)Oc3ccc(-c4cc(F)ccc4F)cc32)c1` [Compound 30K, (S)-N-((6-(2,5-difluorophenyl)-4-((3-isopropylphenyl)sulfonyl)-3,4-dihydro-2H-benzo[b][1,4]-oxazin-2-yl)methyl)-2-hydroxy-2-methylpropanamide], at Gal4-RORγ-LBD, the EC50 is less than 500 nM and the “Gal4-RORγ Assay Max Response” value was “* (The symbol “*” indicates a value in the range of 25 to 90)”. At RORγ-LBD, the EC50 is less than 500 nM and the “TR-FRET Assay Max Response” value is on record as “**** (The symbol “****” indicates a value greater than 200)”.

Regarding `COc1cc(F)cc(-c2ccc3c(c2)N(S(=O)(=O)c2cccc(C(F)(F)F)c2)C[C@H](CNC(=O)C(C)(C)O)O3)c1F` [Compound 30L, (S)-N-((6-(2,5-difluoro-3-methoxyphenyl)-4-((3-(trifluoromethyl)phenyl)sulfonyl)-3,4-dihydro-2H-benzo[b][1,4]oxazin-2-yl)methyl)-2-hydroxy-2-methylpropanamide], at Gal4-RORγ-LBD, the EC50 is less than 500 nM and the “Gal4-RORγ Assay Max Response” value is “* (The symbol “*” indicates a value in the range of 25 to 90)”. At RORγ-LBD, the EC50 was less than 500 nM and the “TR-FRET Assay Max Response” value is listed as “**** (The symbol “****” indicates a value greater than 200)”.

For the compound `COc1cc(S(=O)(=O)N2C[C@H](CCNC(=O)C(C)(C)O)Oc3ccc(-c4cc(F)ccc4F)cc32)ccc1F` [Compound 30M, (S)-N-(2-(6-(2,5-difluorophenyl)-4-((4-fluoro-3-methoxyphenyl)-sulfonyl)-3,4-dihydro-2H-benzo[b][1,4]oxazin-2-yl)ethyl)-2-hydroxy-2-methylpropanamide], on Gal4-RORγ-LBD, the half-maximal effective concentration (EC50) was less than 500 nM and the “Gal4-RORγ Assay Max Response” value is given as “* (The symbol “*” indicates a value in the range of 25 to 90)”. Besides, on RORγ-LBD, the EC50 was less than 500 nM and the “TR-FRET Assay Max Response” value is recorded as “*** (The symbol “***” indicates a value in the range of greater than 150 to 200)”.

In the case of `COc1cccc(-c2ccc3c(c2)N(S(=O)(=O)c2ccc(F)c(OC)c2)C[C@H](CCNC(=O)C(C)(C)O)O3)c1` [Compound 30N, (S)-N-(2-(4-((4-fluoro-3-methoxyphenyl)sulfonyl)-6-(3-methoxyphenyl)-3,4-dihydro-2H-benzo[b][1,4]oxazin-2-yl)ethyl)-2-hydroxy-2-methylpropanamide], on Gal4-RORγ-LBD, the EC50 is less than 500 nM and the “Gal4-RORγ Assay Max Response” value is given as “* (The symbol “*” indicates a value in the range of 25 to 90)”. Moreover, on RORγ-LBD, the EC50 was less than 500 nM and the “TR-FRET Assay Max Response” value was “*** (The symbol “***” indicates a value in the range of greater than 150 to 200)”.

In the case of `COc1cc(S(=O)(=O)N2C[C@H](CCNC(=O)C(C)(C)O)Oc3ccc(-c4cccc(C(F)(F)F)n4)cc32)ccc1F` [Compound 30O, (S)-N-(2-(4-((4-fluoro-3-methoxyphenyl)sulfonyl)-6-(6-(trifluoromethyl)pyridin-2-yl)-3,4-dihydro-2H-benzo[b][1,4]-oxazin-2-yl)ethyl)-2-hydroxy-2-methylpropanamide], at Gal4-RORγ-LBD, the EC50 is less than 500 nM and the “Gal4-RORγ Assay Max Response” value is “** (The symbol “**” indicates a value in the range of greater than 90 to 150)”. Further, at RORγ-LBD, the EC50 is less than 500 nM and the “TR-FRET Assay Max Response” value is “**** (The symbol “****” indicates a value greater than 200)”.

As to `CC(C)(O)C(=O)NCC[C@H]1CN(S(=O)(=O)c2cccc(OC(F)F)c2)c2cc(-c3cc(F)ccc3F)ccc2O1` [Compound 30P, (S)-N-(2-(4-((3-(difluoro-methoxy)phenyl)sulfonyl)-6-(2,5-difluorophenyl)-3,4-dihydro-2H-benzo[b][1,4]oxazin-2-yl)ethyl)-2-hydroxy-2-methylpropanamide], on Gal4-RORγ-LBD, the EC50 is less than 500 nM and the “Gal4-RORγ Assay Max Response” value is given as “** (The symbol “**” indicates a value in the range of greater than 90 to 150)”. At RORγ-LBD, the EC50 was less than 500 nM and the “TR-FRET Assay Max Response” value is listed as “**** (The symbol “****” indicates a value greater than 200)”.

Take `COc1cc(S(=O)(=O)N2C[C@H](CNC(=O)C(C)(C)O)Oc3ccc(-c4cc(F)ccc4F)cc32)ccc1F` [Compound 30Q, (S)-N-((6-(2,5-difluorophenyl)-4-((4-fluoro-3-methoxyphenyl)-sulfonyl)-3,4-dihydro-2H-benzo[b][1,4]oxazin-2-yl)methyl)-2-hydroxy-2-methylpropanamide]: at Gal4-RORγ-LBD, the concentration for a half-maximal effect (EC50) is less than 500 nM and the “Gal4-RORγ Assay Max Response” value is “* (The symbol “*” indicates a value in the range of 25 to 90)”. Besides, on RORγ-LBD, the EC50 is less than 500 nM and the “TR-FRET Assay Max Response” value is listed as “**** (The symbol “****” indicates a value greater than 200)”.

Turning to `CC(C)(O)C(=O)NC[C@H]1CN(S(=O)(=O)c2cccc(OC(F)F)c2)c2cc(-c3cc(F)ccc3F)ccc2O1` [Compound 30R, (S)-N-((4-((3-(difluoromethoxy)-phenyl)sulfonyl)-6-(2,5-difluorophenyl)-3,4-dihydro-2H-benzo[b][1,4]oxazin-2-yl)methyl)-2-hydroxy-2-methylpropanamide], on Gal4-RORγ-LBD, the EC50 is less than 500 nM and the “Gal4-RORγ Assay Max Response” value was “** (The symbol “**” indicates a value in the range of greater than 90 to 150)”. At RORγ-LBD, the EC50 is less than 500 nM and the “TR-FRET Assay Max Response” value is “**** (The symbol “****” indicates a value greater than 200)”.

With `COc1cccc(-c2ccc3c(c2)N(S(=O)(=O)c2ccc(F)c(OC)c2)C[C@H](CNC(=O)C(C)(C)O)O3)c1` [Compound 30S, (S)-N-((4-((4-fluoro-3-methoxyphenyl)sulfonyl)-6-(3-methoxyphenyl)-3,4-dihydro-2H-benzo[b][1,4]oxazin-2-yl)methyl)-2-hydroxy-2-methylpropanamide], on Gal4-RORγ-LBD, the EC50 is less than 500 nM and the “Gal4-RORγ Assay Max Response” value is recorded as “* (The symbol “*” indicates a value in the range of 25 to 90)”. For the same compound, at RORγ-LBD, the EC50 is less than 500 nM and the “TR-FRET Assay Max Response” value is on record as “**** (The symbol “****” indicates a value greater than 200)”.

With `CC(C)(O)C(=O)NC[C@H]1CN(S(=O)(=O)c2cncc(C(F)(F)F)c2)c2cc(-c3cc(F)ccc3F)ccc2O1` [Compound 30U, (S)-N-((6-(2,5-difluorophenyl)-4-((5-(trifluoromethyl)pyridin-3-yl)sulfonyl)-3,4-dihydro-2H-benzo[b][1,4]oxazin-2-yl)methyl)-2-hydroxy-2-methylpropanamide], at Gal4-RORγ-LBD, the EC50 was less than 500 nM and the “Gal4-RORγ Assay Max Response” value is reported as “** (The symbol “**” indicates a value in the range of greater than 90 to 150)”. Moreover, on RORγ-LBD, the EC50 was less than 500 nM and the “TR-FRET Assay Max Response” value is recorded as “*** (The symbol “***” indicates a value in the range of greater than 150 to 200)”.

For `C[C@@](O)(C(=O)NC[C@H]1CN(S(=O)(=O)c2cccc(C(F)(F)F)c2)c2cc(-c3cc(F)ccc3F)ccc2O1)C(F)(F)F` [Compound 30V, (R)-N-(((S)-6-(2,5-difluoro-phenyl)-4-((3-(trifluoromethyl)-phenyl)sulfonyl)-3,4-dihydro-2H-benzo[b][1,4]oxazin-2-yl)methyl)-3,3,3-trifluoro-2-hydroxy-2-methylpropanamide], at Gal4-RORγ-LBD, the EC50 is less than 500 nM and the “Gal4-RORγ Assay Max Response” value was “* (The symbol “*” indicates a value in the range of 25 to 90)”. Also, at RORγ-LBD, the EC50 was less than 500 nM and the “TR-FRET Assay Max Response” value is on record as “**** (The symbol “****” indicates a value greater than 200)”.

Take `C[C@](O)(C(=O)NC[C@H]1CN(S(=O)(=O)c2cccc(C(F)(F)F)c2)c2cc(-c3cc(F)ccc3F)ccc2O1)C(F)(F)F` [Compound 30W, (S)-N-(((S)-6-(2,5-difluoro-phenyl)-4-((3-(trifluoromethyl)-phenyl)sulfonyl)-3,4-dihydro-2H-benzo[b][1,4]oxazin-2-yl)methyl)-3,3,3-trifluoro-2-hydroxy-2-methylpropanamide]: on Gal4-RORγ-LBD, the EC50 was less than 500 nM and the “Gal4-RORγ Assay Max Response” value is “** (The symbol “**” indicates a value in the range of greater than 90 to 150)”. Besides, at RORγ-LBD, the EC50 was less than 500 nM and the “TR-FRET Assay Max Response” value is listed as “**** (The symbol “****” indicates a value greater than 200)”.
